Experiments:
[1] = system: NCI/ADR-RES drug resistant ovarian cancer xenografts; assay: Efficacy in NCI/ADR-RES xenografts; assay type: in vivo, mouse; details: doxorubicin 2.0 mg/kg iv, terminated after the third dose
[2] = system: NCI/ADR-RES ovarian cancer cell; details: overexpresses p-gp; cited from earlier work
[3] = aqueous buffer; cited from earlier work

COc1cccc2c1C(=O)c1c(O)c3c(c(O)c1C2=O)C[C@@](O)(C(=O)CO)C[C@@H]3O[C@H]1C[C@H](N)[C@H](O)[C@H](C)O1 [dox, Doxorubicin]
body weight loss [1]: more than 20% | effectiveness in drug-resistant cells [2]: not effective

COc1cccc2c1C(=O)c1c(O)c3c(c(O)c1C2=O)C[C@@](O)(C(=O)CO)C[C@@H]3O[C@H]1C[C@@H]2NCO[C@@H]2[C@H](C)O1 [doxaz, Doxazolidine]
effectiveness in drug-resistant cells [2]: effective | half-life of hydrolysis to dox [3]: 3 min

CC(=O)O[C@H]1C(=O)[C@@]2(C)[C@H]([C@H](OC(=O)c3ccccc3)[C@]3(O)C[C@H](OC(=O)[C@H](O)[C@@H](NC(=O)c4ccccc4)c4ccccc4)C(C)=C1C3(C)C)[C@]1(OC(C)=O)CO[C@@H]1C[C@@H]2O [paclitaxel]
effectiveness in drug-resistant cells [2]: not effective
